Experimental findings from patent US20100317528A1, “HERBICIDE CONTAINING BENZOYLPYRAZOLE COMPOUND” (ISHIHARA SANGYO KAISHA, LTD., priority 2006, published 2010) are described below.

Holding throughout (type): in vivo
The test system of experiment [1] is redroot pigweed (Amaranthus retroflexus L.). The experiment in a line: Test Example 2: soil application on the day after sowing, redroot pigweed. Particulars: 250 g/ha active ingredient, observed 19th to 28th day after application. The gist of the method: (§1)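 Pre-emergence soil spray on the day after sowing in upland soil pots, formulated compounds diluted in water equivalent to 500 liter per hectare at prescribed active-ingredient rates. Growth inhibition (0–100%, 100 = complete kill) scored visually 19th to 28th day after application.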

In experiment [2] the test system is prickly sida (Sida spinosa L.). The experiment in a line: Test Example 1: foliar treatment, upland pot test, prickly sida. To be noted: 31 g/ha active ingredient, observed 17th to 25th day after application.
Experiment [3] relates to corn (Zea mays L.). The experiment in a line: Test Example 1: foliar treatment, upland pot test, corn. Particulars: 31 g/ha active ingredient, observed 17th to 25th day after application.
In experiment [4] the test system is crabgrass (Digitaria sanquinalis L.). The experiment in a line: Test Example 2: soil application on the day after sowing, crabgrass. Particulars: 250 g/ha active ingredient, observed 19th to 28th day after application. In short, it runs like this:
as §1

Experiment [5] has as its system corn (Zea mays L.). The experiment in a line: Test Example 3: foliar treatment at later leaf stage, corn. To be noted: 4.0 to 4.3 leaf stage, MSO Concentrate 0.5 vol %, 300 L/ha. An excerpt:
(§2) Upland field soil was put into a 1/1,000,000 hectare pot, and seeds of various plants were sown. When the respective plants reached predetermined leaf stage ((1) green foxtail (Setaria viridis L.): 4.0 to 4.5 leaf stage, (2) guineagrass (Panicum maximum Jacq.): 3.5 to 4.3 leaf stage, and (3) corn (Zea mays L.): 4.0 to 4.3 leaf stage, wettable powders or emulsifiable concentrates of compounds of the above formula (I), prepared in accordance with a conventional preparation method, were weighed so that the active ingredients became the prescribed amounts, and diluted with water in an amount corresponding to 300 or 500 liter per 1 hectare (containing of an agricultural spreader (MSO concentrate, manufactured by Cognis Corporation or “KUSARINOH”, manufactured by NIHON NOHYAKU CO., LTD.). The spray solutions thus prepared were applied for foliar treatment by a small sprayer.
(§3) On the 18th to 24th day after application, the state of growth of the respective plants was visually observed, and the herbicidal effect was evaluated by a growth inhibition rate (%) of 0 (equivalent to the non-treated area) to 100% (complete kill).

In experiment [6] the test system is wheat (Triticum spp.). The experiment in a line: Test Example 1: foliar treatment, upland pot test, wheat. Particulars: 31 g/ha active ingredient, observed 17th to 25th day after application. The gist of the method:
(§4)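 Upland soil pots, sown; foliar spray at pigweed cotyledon–2.0 leaf, velvetleaf 0.1–1.5 leaf, rice 1.0–3.0 leaf, wheat 1.7–3.4 leaf. WP/EC formulations, prescribed a.i. rate, 500 L/ha spray volume + 0.1 vol % spreader. Visual % inhibition, d17–25.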

In experiment [7] the test system is rice (Oryza sativa L.). The experiment in a line: Test Example 1: foliar treatment, upland pot test, rice. Particulars: 31 g/ha active ingredient, observed 17th to 25th day after application. The gist of the method:
as §4

Experiment [8] concerns velvetleaf (Abutilon theophrasti MEDIC.). The experiment in a line: Test Example 1: foliar treatment, upland pot test, velvetleaf. To be noted: 31 g/ha active ingredient, observed 17th to 25th day after application. The gist of the method:
as §4

The subject of experiment [9] is soybean (Glycine max Merr.). The experiment in a line: Test Example 1: foliar treatment, upland pot test, soybean. To be noted: 31 g/ha active ingredient, observed 17th to 25th day after application.
For experiment [10], the system named is velvetleaf (Abutilon theophrasti MEDIC.). The experiment in a line: Test Example 2: soil application on the day after sowing, velvetleaf. Particulars: 250 g/ha active ingredient, observed 19th to 28th day after application. In short, it runs like this:
as §1

Experiment [11] has as its system green foxtail (Setaria viridis L.). The experiment in a line: Test Example 3: foliar treatment at later leaf stage, green foxtail. To be noted: 4.0 to 4.5 leaf stage, MSO Concentrate 0.5 vol %, 300 L/ha.
From the text: as §2, §3

For experiment [12] the test system is unchanged. The experiment in a line: Test Example 1: foliar treatment, upland pot test, green foxtail. To be noted: 31 g/ha active ingredient, observed 17th to 25th day after application.
Experiment [13] has as its system guineagrass (Panicum maximum Jacq.). The experiment in a line: Test Example 3: foliar treatment at later leaf stage, guineagrass. Particulars: 3.5 to 4.3 leaf stage, KUSARINOH 0.1 vol %, 500 L/ha.
From the text: as §2, §3

In experiment [14] the test system is redroot pigweed (Amaranthus retroflexus L.). The experiment in a line: Test Example 1: foliar treatment, upland pot test, redroot pigweed. To be noted: 31 g/ha active ingredient, observed 17th to 25th day after application. In short, it runs like this: as §4
In experiment [15] the test system is corn (Zea mays L.). The experiment in a line: Test Example 2: soil application on the day after sowing, corn. Particulars: 250 g/ha active ingredient, observed 19th to 28th day after application. The gist of the method:
as §1

Experiment [16] has as its system barnyardgrass (Echinochloa crus-galli L.). The experiment in a line: Test Example 1: foliar treatment, upland pot test, barnyardgrass. To be noted: 31 g/ha active ingredient, observed 17th to 25th day after application.
Experiment [17] has as its system crabgrass (Digitaria sanguinalis L.). The experiment in a line: Test Example 1: foliar treatment, upland pot test, crabgrass. To be noted: 31 g/ha active ingredient, observed 17th to 25th day after application.
Experiment [18] deals with rice (Oryza sativa L.). The experiment in a line: Test Example 2: soil application on the day after sowing, rice. To be noted: 250 g/ha active ingredient, observed 19th to 28th day after application. The gist of the method: as §1
Experiment [19] deals with soybean (Glycine max Merr.). The experiment in a line: Test Example 2: soil application on the day after sowing, soybean. Particulars: 250 g/ha active ingredient, observed 19th to 28th day after application. In short, it runs like this: as §1
In experiment [20] the test system is barnyardgrass (Echinochloa crus-galli L.). The experiment in a line: Test Example 2: soil application on the day after sowing, barnyardgrass. To be noted: 250 g/ha active ingredient, observed 19th to 28th day after application. In short, it runs like this:
as §1

Experiment [21] relates to prickly sida (Sida spinosa L.). The experiment in a line: Test Example 2: soil application on the day after sowing, prickly sida. To be noted: 250 g/ha active ingredient, observed 19th to 28th day after application. In short, it runs like this: as §1
Experiment [22] relates to green foxtail (Setaria viridis L.). The experiment in a line: Test Example 2: soil application on the day after sowing, green foxtail. Particulars: 250 g/ha active ingredient, observed 19th to 28th day after application. The gist of the method: as §1
Experiment [23] deals with wheat (Triticum spp.). The experiment in a line: Test Example 2: soil application on the day after sowing, wheat. Particulars: 250 g/ha active ingredient, observed 19th to 28th day after application. The gist of the method: as §1
The mark [24] stands for this setting: Amaranthus retroflexus, read-out: Growth inhibition rate (%) Redroot pigweed.
[25] abbreviates: Zea mays, read-out: Growth inhibition rate (%) Corn.
[26] abbreviates: Abutilon theophrasti, read-out: Growth inhibition rate (%) Velvetleaf.

For `COCCOc1c(S(C)(=O)=O)ccc(C(=O)c2cnn(C)c2O)c1C` [Compound No. 151, 5-hydroxy-1-methylpyrazol-4-yl 3-(2-methoxyethoxy)-2-methyl-4-(methylsulfonyl)phenyl ketone], the inhibition (usually the drop in the measured response relative to a control, in per cent) at 250 g/ha in experiment [1] (setting [24]) stood at 100%; in experiment [4] (Digitaria, read-out: Growth inhibition rate (%) Crabgrass), 100%; in [10] (setting [26]), 70%; with corn (Zea mays L.) [15] (setting [25]) it was 0%. The inhibition at 31 g/ha in experiment [2] (Sida spinosa, read-out: Growth inhibition rate (%) Prickly sida) was 80%; with corn (Zea mays L.) [3] (setting [25]), 30%; in the experiment on wheat (Triticum spp.) [6] (Triticum, read-out: Growth inhibition rate (%) Wheat) it was 10%; in the experiment on rice (Oryza sativa L.) [7] (Oryza sativa, read-out: Growth inhibition rate (%) Rice), 60%; in experiment [8] (setting [26]), 98%; in experiment [9] (Glycine max, read-out: Growth inhibition rate (%) Soybean) it was 95%. The inhibition at 31 g/ha in experiment [12] (Setaria viridis, read-out: Growth inhibition rate (%) Green foxtail) turned out to be 100%; in experiment [13] (Megathyrsus maximus, read-out: Growth inhibition rate (%) (18th day after application) Guineagrass), 93%; in experiment [14] (setting [24]), 100%; in experiment [16] (Echinochloa crus-galli, read-out: Growth inhibition rate (%) Barnyardgrass), 100%; in experiment [17] (Digitaria sanguinalis, read-out: Growth inhibition rate (%) Crabgrass), 100%. Further, the inhibition at 120 g/ha with corn (Zea mays L.) [5] (Zea mays, read-out: Growth inhibition rate (%) (21st day after application) Corn) turned out to be 2%. Besides, the inhibition at 7 g/ha in experiment [11] (Setaria viridis, 7 g/ha, read-out: Growth inhibition rate (%) (24th day after application) Green foxtail) was 97%. In addition, in experiment [11] (Setaria viridis, 15 g/ha, read-out: Growth inhibition rate (%) (24th day after application) Green foxtail), the inhibition at 15 g/ha was 100%.
With `CCn1ncc(C(=O)c2ccc(S(C)(=O)=O)c(OCCOC)c2C)c1O` [compound 131], the “Growth inhibition rate (%) Redroot pigweed” value in experiment [1] and in [14] was 100% each time. In addition, the results for the “Growth inhibition rate (%) Rice” value in the experiment with rice (Oryza sativa L.) [18] and with rice (Oryza sativa L.) [7] were 100% and 70%, respectively. The “Growth inhibition rate (%) Prickly sida” value in [2] worked out at 70%; in experiment [21] it was 30%. Also, the “Growth inhibition rate (%) Soybean” value in [19] was determined as 40%; in experiment [9], 100%. The “Growth inhibition rate (%) Corn” value stood at 10% with corn (Zea mays L.) [3] and 30% with corn (Zea mays L.) [15]. Besides, the “Growth inhibition rate (%) Barnyardgrass” value in experiment [20] and in experiment [16] was 100% each time. The “Growth inhibition rate (%) Crabgrass” value in experiment [4] and in experiment [17] was 100% in each case. Besides, in the experiment on corn (Zea mays L.) [5] (120 g/ha), the “Growth inhibition rate (%) (21st day after application) Corn” value is given as 0%. The entries for the “Growth inhibition rate (%) Wheat” value with wheat (Triticum spp.) [6] and in the experiment on wheat (Triticum spp.) [23] were 30% and 40%, respectively. In addition, the “Growth inhibition rate (%) Green foxtail” value in [22] and in [12] was 100% each time. Besides, the “Growth inhibition rate (%) Velvetleaf” value in experiment [8] was found to be 100%; in experiment [10] it was 90%. In addition, the figures for the “Growth inhibition rate (%) (24th day after application) Green foxtail” value in [11] (7 g/ha) and in experiment [11] (15 g/ha) were 98% and 100%, respectively. In addition, the “Growth inhibition rate (%) (18th day after application) Guineagrass” value in [13] (31 g/ha) stood at 93%.
For the compound `COCCOc1c(S(C)(=O)=O)ccc(C(=O)c2cnn(C(C)C)c2O)c1C` [compound 258], the figures for the “Growth inhibition rate (%) Redroot pigweed” value in [1] and in [14] were 100% and 95%, respectively. For the same compound, the “Growth inhibition rate (%) Rice” value in the experiment with rice (Oryza sativa L.) [18] is 80%; in the experiment with rice (Oryza sativa L.) [7] it was 95%. Besides, the “Growth inhibition rate (%) Prickly sida” value in experiment [2] is reported as 50%; in experiment [21], 40%. Further, the “Growth inhibition rate (%) Soybean” value is reported as 0% in [19] and 90% in experiment [9]. Besides, the entries for the “Growth inhibition rate (%) Corn” value in the experiment with corn (Zea mays L.) [3] and with corn (Zea mays L.) [15] were 10% and 0%, respectively. The “Growth inhibition rate (%) Barnyardgrass” value in experiment [20] and in [16] was 100% each time. Also, the “Growth inhibition rate (%) Crabgrass” value in experiment [4] and in experiment [17] was 100% throughout. Also, the “Growth inhibition rate (%) Wheat” value with wheat (Triticum spp.) [6] and in the experiment on wheat (Triticum spp.) [23] was 0% throughout. Besides, the “Growth inhibition rate (%) Green foxtail” value in experiment [22] and in experiment [12] was 100% throughout. In addition, the “Growth inhibition rate (%) Velvetleaf” value in [8] was 98%; in experiment [10], 100%. Moreover, the entries for the “Growth inhibition rate (%) (24th day after application) Green foxtail” value in experiment [11] (7 g/ha) and in experiment [11] (15 g/ha) were 95% and 100%, respectively.
